# Results published in PMC8157947, “Peptidic boronic acids are potent cell-permeable inhibitors of the malaria parasite egress serine protease SUB1” (Proceedings of the National Academy of Sciences of the …, 2021).
# Several values for one entry are separate records, joined by “and”; a condition that tells them apart may be missing. Equal entries are not always repeated. Entries after “also recorded” stand apart in the source; their conditions may differ. Where two headings read alike, the source gives them in different places.
# How the values were obtained:
# [1] = biological target: T1, recombinant PfSUB1 (rPfSUB1) (Plasmodium falciparum, UniProt Q8I0V0); assay: rPfSUB1 fluorogenic peptide substrate cleavage inhibition assay; format: biochemical
# T1 construct: Chymotrypsin-treated rPfSUB1 (expressed and purified as described previously); made in house
# Source text: We previously described the development of a fluorescence-based in vitro assay suitable for the evaluation of substrate-based PfSUB1 inhibitors, using recombinant PfSUB1 (rPfSUB1) and fluorogenic peptide substrates based on cleavage sites within endogenous protein substrates of PfSUB1 ([13], [21]). […] This was perhaps unsurprising due to the high molecular mass and polar nature of these compounds, including the presence of a carboxylic acid moiety that was designed to mimic endogenous PfSUB1 protein substrates by interacting with the basic S’ surface of the PfSUB1 active-site cleft ([16]). Collectively, these features likely rendered the compounds poorly membrane penetrant.
# Fluorescence of this peptide is quenched by rhodamine dimerization in the intact substrate but increases upon cleavage at the internal Q-D bond. Chymotrypsin-treated rPfSUB1 (expressed and purified as described previously ([16]) was stored at −80 °C as a 228 U/mL stock in 20 mM Tris–HCl pH 8.2, 150 mM NaCl, 10% glycerol, and diluted for use (1:500 or 1:600) in reaction buffer (20 mM Tris–HCl pH 8.2, 150 mM NaCl, 12 mM CaCl2, 25 mM CHAPS). Peptidic boronic acid inhibitors were dissolved in 100% DMSO at 10 or 20 mM, then further diluted in DMSO to generate stock solutions ranging from 500 to 0.01 μM and then used diluted 1:100 in the enzyme reactions. All reactions were performed in wells of white 96-well microwell plates (Nunc); 50 μL diluted rPfSUB1 was preincubated for 5 min with 1 μL each of the serially diluted boronic acid inhibitors, followed by addition of 50 μL substrate solution (0.1 μM final). Subsequent fluorescence increase was continuously monitored using a SpectraMax M5e plate reader and SoftMax Pro-6.3 software, with readings taken every 5 min for 60 min using excitation and emission values of 552 and 580 nm, respectively. […] All experiments were performed in duplicate.
# [2] = tested on: asexual blood-stage P. falciparum (clone 3D7); assay: SYBR Green I parasite growth assay; format: cell-based, Plasmodium falciparum; conditions: for EC50: Plasmodium falciparum, 3D7, 96 h, two erythrocytic growth cycles, SYBR Green I
# Experimental: The impact of the peptidic boronic acids on replication of asexual blood-stage P. falciparum (clone 3D7) was assessed using a SYBR Green I assay, essentially as described by Smilkstein et al. ([22]). Briefly, test compounds (dissolved in dimethyl sulfoxide [DMSO] at concentrations ranging from 4 mM to 5 μM) were added in triplicate to wells of flat bottomed, 96-well microtitre plates (1 μL per well). Wells were then supplemented with 100 μL per well of a P. falciparum parasite culture at 0.1% parasitaemia, 1% hematocrit. Each assay plate also included DMSO-only control wells (1% vol/vol), as well as additional control wells containing uninfected RBCs only. Plates were incubated in sealed, humidified gassed chambers at 37 °C for 96 h to allow the parasites to undergo two entire cycles of erythrocytic growth. Wells were then supplemented with 100 μL 1:5,000 dilution of stock SYBR Green I (Life Technologies, catalog no. S7563) diluted in 20 mM Tris HCl pH 7.5, 5 mM EDTA, 0.008% (weight/vol) saponin, 0.08% (vol/vol) Triton ×100. Plates were agitated to mix, incubated for a further 1 h in the dark at room temperature, then 150 μL samples from each well transferred to a fresh white microwell plate and fluorescence quantified using a SpectraMax M5e plate reader and SoftMax Pro-6.3 software (Ex 485 nm/Em 530 nm). IC50 values were determined from dose–response curves obtained after subtracting background fluorescence values (obtained from the RBC-only wells) from all experimental readings.
# [3] = tested on: P. falciparum 3D7 schizonts; assay: Short-term egress/invasion assay, ring formation by flow cytometry; format: cell-based, Plasmodium falciparum; conditions: for EC50: Plasmodium falciparum, mature 3D7 schizonts with RBCs, 4 h, flow cytometry
# Experimental: For this, P. falciparum cultures containing synchronous, highly mature schizonts were supplemented with compounds 3b, 3e, 3i, and 3j at a range of dilutions, then allowed to undergo egress and invasion for just 4 h in the continued presence of the compounds, before assessing formation of newly invaded “ring” stage parasites by flow cytometry.
# (§1) Short-term egress, invasion, and washout assays were performed essentially as described previously ([27], [28], [42]). Briefly, highly synchronous mature Percoll-enriched schizonts with or without added fresh RBCs (∼5% parasitaemia final) were incubated with compounds under test or vehicle only (DMSO, 1% vol/vol). For washout assays, schizonts were treated with C2 or various concentrations of inhibitor 3j for 1 to 4 h, then washed extensively (at least four times) prior to addition to fresh RBCs where required. After incubation at 37 °C for just 1 to 4 h (or overnight for invasion assays) to allow schizont rupture, cells were pelleted. Clarified culture supernatants were assessed for extent of hemoglobin release (a measure of schizont rupture) by absorption spectroscopy at 415 nm as described previously ([28]) or analyzed by Western blot using antibodies against SERA5 ([7], [11]). To quantify generation of new rings, samples of the cultures were fixed with 4% paraformaldehyde/0.02% glutaraldehyde and stained with SYBR Green I (Life Technologies) and then analyzed by flow cytometry on a BD FACSVerse using BD FACSuite software. Data were analyzed using FlowJo software. All cultures were also routinely analyzed by microscopic examination of Giemsa-stained thin films to visually assess parasite morphology.
# [4] = tested on: PfSUB1-mediated proteolytic processing of SERA5; assay: Western blot of SERA5 processing after washout; format: cell-based, Plasmodium falciparum; conditions: 4 h pretreatment then washout
# Source text: To seek unambiguous confirmation that PfSUB1 is the intracellular target of compound 3j, we examined the effects of the compound on the PfSUB1-mediated proteolytic processing of the established endogenous PfSUB1 substrate SERA5, an abundant parasite PV protein that only becomes accessible to cleavage upon discharge of PfSUB1 into the PV in the minutes leading up to egress and is then released in a processed form into culture supernatants ([6], [11], [12]). […] It was concluded that compound 3j prevents egress and parasite proliferation through direct inhibition of intracellular PfSUB1.
# Short-term egress, invasion, and washout assays were performed essentially as described previously ([27], [28], [42]). […] Clarified culture supernatants were assessed for extent of hemoglobin release (a measure of schizont rupture) by absorption spectroscopy at 415 nm as described previously ([28]) or analyzed by Western blot using antibodies against SERA5 ([7], [11]). To quantify generation of new rings, samples of the cultures were fixed with 4% paraformaldehyde/0.02% glutaraldehyde and stained with SYBR Green I (Life Technologies) and then analyzed by flow cytometry on a BD FACSVerse using BD FACSuite software. Data were analyzed using FlowJo software. All cultures were also routinely analyzed by microscopic examination of Giemsa-stained thin films to visually assess parasite morphology.
# [5] = tested on: P. falciparum schizonts; assay: Ring formation after pretreatment of schizonts and washout; format: cell-based, Plasmodium falciparum; conditions: pretreated schizonts washed, fresh RBCs, assessed at 24 h; 3j 10 μM, C2 1 μM
# Experimental: as §1
# [6] = tested on: P. falciparum schizonts expressing EXP2-mNeonGreen; assay: Time-lapse video microscopy of egress after compound washout; format: cell-based, Plasmodium falciparum; conditions: 1 μM
# [7] = biological target: T1, recombinant PfSUB1 (rPfSUB1); conditions: cited from earlier work
# [8] = tested on: asexual blood-stage P. falciparum (clone 3D7); set-up: method as in PMID 22543039, PMID 25129616; conditions: earlier work; cited from earlier work
# [9] = set-up: method as in PMID 30117017; conditions: cited from earlier work
# [10] = fluorogenic peptide substrate, mean ± SD of at least three measurements, read-out: IC50 (nM) (rPfSUB1)
# T1 sequence (Q8I0V0 218-688): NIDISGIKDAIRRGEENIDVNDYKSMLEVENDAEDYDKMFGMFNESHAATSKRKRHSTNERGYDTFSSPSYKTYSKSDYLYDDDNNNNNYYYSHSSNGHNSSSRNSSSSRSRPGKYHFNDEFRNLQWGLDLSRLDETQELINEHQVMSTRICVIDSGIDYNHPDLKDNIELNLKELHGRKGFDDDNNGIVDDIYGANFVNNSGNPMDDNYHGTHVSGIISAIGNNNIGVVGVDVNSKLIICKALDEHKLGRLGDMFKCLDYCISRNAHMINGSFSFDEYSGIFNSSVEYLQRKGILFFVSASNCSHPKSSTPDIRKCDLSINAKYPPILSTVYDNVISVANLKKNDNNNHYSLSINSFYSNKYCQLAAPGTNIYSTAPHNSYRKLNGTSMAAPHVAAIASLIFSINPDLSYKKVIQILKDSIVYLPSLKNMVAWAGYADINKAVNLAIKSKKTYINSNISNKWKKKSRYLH
smiles,measurement,setting,value
CC(=O)N[C@H](C(=O)N[C@H](C(=O)NCC(=O)NC(C)C(=O)C(=O)NCCC(=O)O)[C@@H](C)O)C1CCCC1 (stereo partly shown) [2a],IC50,"[1]; IC50(PfSUB1), Fig. 1",400 nM
same,IC50,"[1]; IC50 (nM) (rPfSUB1), fluorogenic peptide substrate, mean ± SD of at least three measurements",~370 nM and 370 nM
same,inhibition at 10 µM,[1]; read-out: degree of rPfSUB1 inhibition at 10 µM (%),97%
same,activity in parasite growth assay,[2],no activity in parasite growth assay
CCC(C)[C@H](NC(C)=O)C(=O)N[C@H](C(=O)NCC(=O)N[C@@H](C)B(O)O)[C@@H](C)O (stereo partly shown) [3a],IC50,[1]; [10],69.4 ± 1.2 nM
same,EC50,[2],1.8 ± 0.6 µM
CC(=O)NC(C(=O)NC(C(=O)NCC(=O)NC(C)B(O)O)C(C)O)C1CCCC1 (stereo not shown) [3b],IC50,[1]; [10],9.3 ± 0.5 nM
same,EC50,[2],2.3 ± 1.4 µM
same,EC50,[3],12700 ± 800 nM
CC(=O)N[C@H](C(=O)N[C@H](C(=O)NCC(=O)N[C@H](C)B(O)O)[C@@H](C)O)C1CCCC1 [3c],IC50,[1]; [10],60.1 ± 2.1 nM
same,EC50,[2],18.4 ± 1.8 µM
CC(=O)N[C@H](C(=O)N[C@H](C(=O)NCC(=O)NCB(O)O)[C@@H](C)O)C1CCCC1 [3d],IC50,[1]; [10],54.3 ± 1.1 nM
same,EC50,[2],1.9 ± 0.4 µM
CC(=O)N[C@H](C(=O)N[C@H](C(=O)NCC(=O)N[C@H]1CCOB1O)[C@@H](C)O)C1CCCC1 [3e],IC50,[1]; [10],4.6 ± 0.1 nM
same,EC50,[2],15 ± 3.6 µM
same,EC50,[3],15700 ± 2500 nM
CC(=O)N[C@H](C(=O)N[C@H](C(=O)NCC(=O)N[C@H]1CCCOB1O)[C@@H](C)O)C1CCCC1 [3f],IC50,[1]; [10],204 ± 7.5 nM
CC(=O)N[C@H](C(=O)N[C@H](C(=O)NCC(=O)N[C@H]1CCC(=O)OB1O)[C@@H](C)O)C1CCCC1 [3g],IC50,[1]; [10],18.7 ± 1.3 nM
CC(=O)N[C@H](C(=O)N[C@H](C(=O)NCC(=O)NC(B(O)O)c1ccccc1)[C@@H](C)O)C1CCCC1 (stereo partly shown) [3h],IC50,[1]; [10],112 ± 2.3 nM
CC(=O)N[C@H](C(=O)N[C@@H](C)C(=O)NCC(=O)N[C@@H](C)B(O)O)C1CCCC1 [3i],IC50,[1]; [10],~7.8 nM and 7.8 nM
same,EC50,[2],0.34 ± 0.08 µM
same,improved growth inhibitory potency,[2]; relative to compound 3b,~10 fold
same,schizont phenotype in Giemsa-stained thin films,"[3]; 10 μM, 4 h incubation",arrest of unruptured schizonts with no ring formation
same,EC50,[3],2000 ± 100 nM
"CN(C)Cc1ccn2c(-c3ccnc(N)n3)c(-c3ccc(F)cc3)nc2c1 [C2, 4-[7-[(dimethylamino)methyl]-2-(4-fluorphenyl)imidazo[1,2-α]pyridine-3-yl]pyrimidin-2-amine, reference compound]",SERA5 proteolytic processing,[4],blocked
same,ring production after washout,[5],produced rings efficiently
same,time of egress initiation following washout,[6],~6.5 min
CC(=O)N[C@H](C(=O)N[C@H](C(=O)NCC(=O)NC(C)C(=O)C(=O)NCCC(=O)O)[C@@H](C)O)C(C)C (stereo partly shown) [compound 1],IC50,[7]; Table S1,900 ± 200 nM
same,IC50,[7]; earlier work,~900 nM
same,antiparasite activity in vitro / parasite growth assay,[8],no antiparasite activity in vitro; also recorded: no activity in parasite growth assay
CC(C)C[C@H](NC(=O)CNC(=O)c1cc(Cl)ccc1Cl)B(O)O [ixazomib],terminal half-life,[9],~228 h
